According to PMC5716993, “The interdomain flexible linker of the polypeptide GalNAc transferases dictates their long-range glycosylation preferences” (Nature Communications, 2017):
Entries after “also recorded” stand apart in the source; their conditions may differ.

How the values were obtained:
[1] = tested on: GalNAc-T2 chimera 1 and 2; assay: Specific activity of GalNAc-T2 chimera 1 and 2; assay type: biochemical; conditions: 1.4 mM, in words
Procedure: Specific activity determinations: GalNAc-T glycosylation reactions against (glyco)peptides 1–3 were performed with 75 mM sodium cacodylate, pH 6.5, 1 mM 2-mercaptoethanol, 10 mM MnCl2, 0.25 mM [^3H]-radiolabeled UDP-GalNAc (~6 × 10^8 DPM/µmole, American Radiolabeled Chemicals Inc.), and 1.4 mM (~1.25 mg/ml) of (glyco)peptide (from 4 mM stock in 1 mM TRIS, pH ~7) and varying concentrations (0.01 to 0.5 µM) of transferase (determined by OD280), giving a final reaction volumes of 20 µl in 100 µl capped Eppendorf tubes. […] Before performing time course experiments, the relative activity of each transferase was determined by trial and error against all three peptides to determine the optimal transferase concentration or incubation time that gave no more than 10% peptide glycosylation against the best substrate. […] Total UDP-[^3H]-GalNAc utilization (transfer to peptide substrate and transfer to water, i.e, hydrolysis) was determined by difference after scintillation counting (Beckman LS5801 scintillation counter) 1/20 of the sample before and after passage over Dowex 1 × 8. The extent of [^3H]-GalNAc transfer to peptide and the extent of hydrolysis was determined by Sephadex G10 gel filtration analysis, typically for the longest reaction time point, as previously described. […]

GalNAc-T4 = molecular target: T1, GalNAc-T4 (Homo sapiens, UniProt Q8N4A0); assay: STD-NMR binding / epitope mapping; conditions: for STD-NMR signals of the GalNAc sugar protons: GalNAc moiety, UDP, pH 7.4; for STD-NMR signals of the GalNAc sugar protons / STD-NMR signals (peptide recognition): ~880 μM ligand, 13.5 μM GalNAc-T4, 298 K; for STD-NMR signals of the GalNAc sugar protons / STD-NMR signals (peptide recognition) / STD-NMR-derived epitope mapping of GalNAc moiety: in words; for STD-NMR signals (peptide recognition): in presence of UDP and MnCl2 (75 μM each), pH 7.4 uncorrected, TRIS-d11 D2O; for STD-NMR-derived epitope mapping of GalNAc moiety: normalized to the highest STD response
T1 construct: amino acid residues 36–578 of the human GalNAc-T4; histidine tag (C); made in house; host or cells: Pichia pastoris SMD1168 (pPICZαA, secreted)
Procedure: All NMR experiments were recorded on a Bruker Avance 600 MHz spectrometer equipped with a triple channel cryoprobe head. The^1H NMR resonances of the peptides 1–3 were completely assigned through standard 2D-TOCSY (30 and 80 ms mixing time) and 2D-NOESY experiments (400 ms mixing time). Solution conditions used for the NMR characterization studies were 1–3 mM (glyco)peptide, 25 mM perdeuterated tris-d11 in 90:10 H2O/D2O, 7.5 mM NaCl, and 1 mM DTT, uncorrected pH 7.4. The assignments were accomplished either at 278 or 298 K. The resonance of 2,2,3,3-tetradeutero-3-trimethylsilylpropionic acid (TSP) was used as a chemical shift reference in the^1H NMR experiments (δ TSP = 0 ppm). Peak lists for the 2D-TOCSY and 2D-NOESY spectra were generated by interactive peak picking using the computer aided resonance assignment (CARA) software.
Samples for STD experiments were prepared in perdeuterated 25 mM TRIS-d11 in deuterated water, 7.5 mM NaCl, and 1 mM DTT, uncorrected pH 7.4. STD-NMR experiments were performed at 298 K in the presence of 75 μM UDP, 75 μM MnCl2 with ~880 μM peptide (or GalNAc-O-Me) and 13.5 μM GalNAc-T4 giving a molar ratio of 65:1 peptide:GalNAc-T4.
The STD-NMR spectra were acquired with 1920 transients in a matrix with 64 k data points in t2 in a spectral window of 12335.53 Hz centered at 2819.65 Hz. An excitation sculpting module with gradients was employed to suppress the water proton signals. Selective saturation of the protein resonances (on resonance spectrum) was performed by irradiating at −1 ppm using a series of Eburp2.1000-shaped 90° pulses (50 ms, 1 ms delay between pulses) for a total saturation time of 2.0 s. For the reference spectrum (off resonance), the samples were irradiated at 100 ppm. Proper control experiments were performed with the ligands in the presence and absence of the protein in order to optimize the frequency for protein saturation (−1 ppm) and to ensure that the ligand signals were not affected. […] This nonspecific saturation was taken into account, by subtraction, when quantifying the STD-NMR data in the presence of the transferase. As well, a blank STD experiment with only the protein was also recorded. The substraction of this protein STD spectrum allowed eliminating the signal background of the protein. In all cases, to accomplish the STD-NMR-derived epitope mapping of each ligand, the STD-NMR total intensities were normalized with respect to the highest STD-NMR response. For Fig. 2b and Supplementary Fig. 1, the STD response of each amino acid corresponds to the average of STD percentages of all amino acid proton resonances that were measured with sufficient accuracy. The signal of the anomeric proton of as well as, the Hα protons of the Ala amino acids of glycopeptides could not be analyzed in the STD-NMR spectra due to their close proximity to the HDO resonance. Proton resonances, from Gly and Pro, appear in the same chemical shift region of the spectrum and were not discriminated.

T1 sequence (Q8N4A0 36-578): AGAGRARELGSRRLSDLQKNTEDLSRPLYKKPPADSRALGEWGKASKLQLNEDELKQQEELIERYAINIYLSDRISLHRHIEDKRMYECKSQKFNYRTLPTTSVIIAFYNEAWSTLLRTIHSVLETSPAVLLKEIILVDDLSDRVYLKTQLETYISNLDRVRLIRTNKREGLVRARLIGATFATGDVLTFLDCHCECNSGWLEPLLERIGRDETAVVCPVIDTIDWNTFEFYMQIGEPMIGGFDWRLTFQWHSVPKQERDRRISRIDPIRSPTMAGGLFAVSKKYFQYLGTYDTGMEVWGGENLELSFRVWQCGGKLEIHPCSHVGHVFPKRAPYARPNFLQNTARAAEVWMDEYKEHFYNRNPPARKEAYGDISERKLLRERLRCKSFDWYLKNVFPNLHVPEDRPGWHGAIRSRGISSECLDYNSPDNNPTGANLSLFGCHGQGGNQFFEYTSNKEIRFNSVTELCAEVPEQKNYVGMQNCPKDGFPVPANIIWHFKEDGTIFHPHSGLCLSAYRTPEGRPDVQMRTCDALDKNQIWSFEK

Substance | specific activity against monoglycopeptide 2, change [1] | STD-NMR signals of the GalNAc sugar protons (GalNAc-T4; MnCl2) | STD-NMR signals (peptide recognition) (GalNAc-T4) | STD-NMR-derived epitope mapping of GalNAc moiety (GalNAc-T4; 298 K, pH 7.4, UDP, MnCl2) | STD response, GalNAc H3 (GalNAc-T4; H3 of GalNAc moiety, normalized to highest STD response, 298 K, pH 7.4, UDP, MnCl2) [%] | STD response, GalNAc H4 (GalNAc-T4; H4 of GalNAc moiety, normalized to highest STD response, 298 K, pH 7.4, UDP, MnCl2) [%]
AGAGTTPGPGAGAT*GA [Peptide 2, monoglycopeptide …*GA, T* denotes the Thr-O-GalNAc moiety] | decrease in the observed specific activity | unambiguous and more intense STD-NMR signals; also recorded: GalNAc protons receive much more saturation than the amino acid residues | relatively weak STD-NMR signals were observed for the Ala and Thr methyl protons | the highest STD response corresponded to the H2 proton of the GalNAc moiety followed by a modest STD of protons H4, H3, and N-acetyl group | – | –
GAT*GAGAGAGTTPGPG [Peptide 3, monoglycopeptide GAT*…, T* denotes the Thr-O-GalNAc moiety] | – | unambiguous and more intense STD-NMR signals; also recorded: GalNAc protons receive much more saturation than the amino acid residues | relatively weak STD-NMR signals were observed for the Ala and Thr methyl protons; also recorded: no significant STD with the acceptor peptide residues | H2, H4, and the N-acetyl group of the GalNAc moiety have the highest STD-NMR response closely followed by the H3 proton | 72 | 92
